Results on one compound are retold here after patent US20220288001A1, “CREATINE FOR IMMUNOTHERAPY” (The Regents of the University of California, priority 2019, published 2022).

The subject of one test is Zap-70. Description: Western blot of TCR proximal signaling in CD8 T cells with creatine supplementation. It counts as cell-based, mouse. As to conditions: CrT-WT CD8 T cells; creatine 0.5 mM; anti-CD3 stimulation. Here is the method: CD8 T cells were cultured in vitro in standard T cell culture medium comprising RPMI 1640 (Cat #10040, Corning), 10% FBS (Cat #F2442, Sigma), 1% Penicillin-Streptomycin-Glutamine (Cat #10378016, Gibco), 1% MEM Non-Essential Amino Acids Solution (Cat #11140050, Gibco), 1% HEPES (Cat #15630080, Gibco), 1% Sodium Pyruvate (100 mM) (Cat #11360070, Gibco), and 0.05 mM β -Mercaptoethanol (Cat #M3148, Sigma). Unless otherwise indicated, cells were seeded at 0.5×10^6 cells per well in 24-well plates and stimulated with plate-bound anti-CD3 (5 μg/ml) (clone 145-2C11), for up to 5 days. At indicated time point(s), cells were collected and analyzed for CrT mRNA expression using qPCR, for cell proliferation through cell counting, for viability through Annexin V/7-AAD staining followed by flow cytometry analysis, for surface activation marker (CD25) expression through surface staining followed by flow cytometry analysis, for effector molecule (Granzyme B, IL-2, and IFN-γ) production through intracellular staining followed by flow cytometry analysis, and for cytokine (IL-2 and IFN-γ) secretion through collecting cell culture supernatants followed by ELISA analysis. CrT protein expression and TCR signaling events were analyzed using western blot analysis. […]

A further test has as its system cancer growth. As to conditions: early studies (Kristensen et al., 1999; Miller et al., 1993); cited from earlier work.

With `CN(CC(=O)O)C(=N)N` [creatine], in the test on Zap-70, the Zap-70 phosphorylation result was “significantly increased”. Moreover, the “direct inhibition of cancer growth” value in the test on cancer growth is listed as “could directly inhibit cancer growth”.
